Results published in US20070207967A1, “Peptide Inhibitors of Matrix Metalloproteinase Activity” (CTT CANCER TARGETING TECHNOLOGIES OY, priority 2004, published 2007).

Key:
pro-MMP-9 [1] = target: T1, pro-MMP-9 (Homo sapiens, UniProt P14780); test: Activation of purified pro-MMP-9 by MMP-3 in vitro; format: biochemical; conditions: 200 μM, 1 h, 37° C.
CBD = target: T2, CBD (Homo sapiens, UniProt P14780); test: Gelatin binding to immobilized CBD; conditions: biotinylated gelatin
T2 construct: CBD (amino acids Gly^204-Gly^373) was amplified from MMP-9 cDNA; made in house; host or cells: E. coli
T2 sequence (P14780 223-392 limits assumed): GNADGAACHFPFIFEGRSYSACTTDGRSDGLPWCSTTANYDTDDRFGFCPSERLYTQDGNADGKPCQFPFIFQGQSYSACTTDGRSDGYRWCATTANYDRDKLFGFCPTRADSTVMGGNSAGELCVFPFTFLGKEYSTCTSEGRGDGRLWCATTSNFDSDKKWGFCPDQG
Protocol: Gelatin and CBD binding assays. Recombinant CBD or human plasma fibronectin (Calbiochem) (0.2 μg/ml in TBS) was immobilized in microtiter wells. The wells were saturated with 1% BSA-PBST. Biotinylated gelatin (0.2 μg/ml in 1% BSA-PBST) was added with or without peptides at the concentrations indicated or with an excess of unlabelled gelatin (10 μg/ml) and allowed to bind for 1 h. Bound gelatin was detected with streptavidin-peroxidase. CBD binding to immobilized fibronectin, the 110-kDa fragment of fibronectin (Upstate Biotechnology) or urea-denaturated human plasma vitronectin (17) (1 μg/well) was studied using biotinylated CBD (5 μg/ml) in 1% BSA-PBST in the presence or absence of 20 μM peptides.

THP-1 monocytic cells = test: THP-1 cell migration on GST-LLG-C4; format: cell-based, human; conditions: GST-LLG-C4 substratum, 16 h
Protocol: (§1) Cell migration and invasion. The cell migration assay was conducted using transwell migration chambers (8 μm pore size, Costar) in 10% serum-containing medium (2,14). Briefly, the membranes were coated on both sides with 40 μg/ml GST or with the β2 integrin ligand peptide […]-GST fusion (GST-LLG-C4) and blocked with complete medium. THP-1 cells (50 000/100 μl) were preincubated with the peptides for 1 h in serum-containing medium. The cells were allowed to migrate for 16 h and were then stained with crystal violet and counted (14). The HT1080 (20 000 cells/I100 μl) invasion assay was performed as the THP-1 migration, except that matrigel coated transwells (BD Biosciences) were used.

αM integrin I domain = αM integrin I domain (Homo sapiens, UniProt P11215); test: Pro-MMP-9 binding to αM integrin I domain
Chain of αM integrin I domain (P11215 150-328 limits assumed): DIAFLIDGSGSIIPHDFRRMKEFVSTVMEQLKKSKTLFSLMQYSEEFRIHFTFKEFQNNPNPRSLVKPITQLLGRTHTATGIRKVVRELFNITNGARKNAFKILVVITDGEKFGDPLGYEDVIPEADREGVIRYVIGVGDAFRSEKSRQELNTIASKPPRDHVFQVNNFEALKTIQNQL
Protocol: Pro-MMP-9 and gelatin binding to leukocyte αM integrin. Pro-MMP-9 binding to the αM I domain in the presence of peptides was studied as described (12). Gelatin binding to the pro-MMP-^9/αMβ2 integrin complex was studied by immobilizing the integrin αMβ2 (12) or αIIbβ3 as a control (Enzyme Research Laboratories, South Bend, Ind.) (1 μg/well) in TBS/1 mM CaCl2/1 mM MgCl2 followed by saturation of the wells with 1% BSA in PB ST. Pro-MMP-9 (100 ng/well) was incubated for 2 h and the unbound pro-MMP-9 was washed away. Biotinylated gelatin (2.5 μg/ml) was allowed to bind for 30 min at room temperature. Bound gelatin was detected with streptavidin-peroxidase.

[2] = test system: HSC-3 tongue squamous cell carcinoma xenografts; test: Tumor growth in vivo, HSC-3 xenografts
Protocol: Tumor growth in vivo. […] HSC-3 tumors were established by administering 5×10^6 tumor cells in a 100 μl volume in PBS in both flanks of the Hsd:Athymic Nude-nu mice. After three days, the mice received five daily injection of 0.8 mg/ml CRV or the scrambled peptide or the vehicle (PBS) via the tail vein in a 200 μl volume. Three-dimensional caliper measurements were taken twice a week and the tumor volumes calculated. Mice were sacrificed when the tumor volume reached 1000 mm^3. For the staining of the tumor vasculature, 7 μm frozen tissue sections were stained with anti-CD31 antibody (MEC 13.3, BD Biosciences) and anti-rat Alexa Fluor 488 antibodies.

pro-MMP-9 [3] = target: T1, pro-MMP-9; test: Plasmin/MMP-3-mediated pro-MMP-9 activation in HT1080 cells, zymography; format: cell-based; conditions: PDBu-activated HT1080, plasminogen, peptides 200 μM
Protocol: (§2) Activation of MMP-9. THP-1 cells (40 000/100 μl) or confluent HT1080 cells were incubated for 16 h in the presence or absence of 2.5 μg/ml plasminogen, 0.5 μg/ml pro-MMP-3 (Oncogene Research Products), 40 nM PDBu, and the peptides at a 200 μM concentration unless otherwise indicated. Aliquots of the conditioned media were analyzed by gelatin zymography (9). […] The samples were analyzed by gelatin zymography.

HT1080 fibrosarcoma = test: HT1080 invasion through matrigel; format: cell-based, human; conditions: 200 μM concentration
Protocol: as §1

pro-MMP-9 [4] = target: T1, pro-MMP-9; test: Pro-MMP-9 activation in THP-1 cells, zymography; format: cell-based; conditions: THP-1, pro-MMP-3 and plasminogen, peptides 200 μM
Protocol: as §2

HT1080 cells = test: HT1080 cell adhesion to vitronectin or fibronectin; format: cell-based, human; conditions: proteins 40 μg/ml, CRV peptide 200 μM
Protocol: Cell adhesion. HT1080 cells were allowed to adhere on vitronectin or fibronectin (2 μg/ml) in the presence or absence of peptides (200 μM), proteins (40 μg/ml) or a monoclonal anti-αvβ5 integrin antibody P1F6 (Chemicon) or a control antibody (25 μg/ml). The adhesion was quantified as described (14). Adhesion of THP-1 cells to immobilized KIM127 or control monoclonal antibodies (2 μg/ml) was done in the presence or absence of soluble proteins (50 μg/ml) or antibodies (25 μg/ml).

[5] = target: T3, aminophenylmercuric acetate (APMA)-activated MMP-2 (Homo sapiens, UniProt P08253); test: Gelatinase inhibition assay (gelatin degradation), MMP-2; format: biochemical; conditions: biotinylated gelatin substrate
T3 sequence (P08253 110-660): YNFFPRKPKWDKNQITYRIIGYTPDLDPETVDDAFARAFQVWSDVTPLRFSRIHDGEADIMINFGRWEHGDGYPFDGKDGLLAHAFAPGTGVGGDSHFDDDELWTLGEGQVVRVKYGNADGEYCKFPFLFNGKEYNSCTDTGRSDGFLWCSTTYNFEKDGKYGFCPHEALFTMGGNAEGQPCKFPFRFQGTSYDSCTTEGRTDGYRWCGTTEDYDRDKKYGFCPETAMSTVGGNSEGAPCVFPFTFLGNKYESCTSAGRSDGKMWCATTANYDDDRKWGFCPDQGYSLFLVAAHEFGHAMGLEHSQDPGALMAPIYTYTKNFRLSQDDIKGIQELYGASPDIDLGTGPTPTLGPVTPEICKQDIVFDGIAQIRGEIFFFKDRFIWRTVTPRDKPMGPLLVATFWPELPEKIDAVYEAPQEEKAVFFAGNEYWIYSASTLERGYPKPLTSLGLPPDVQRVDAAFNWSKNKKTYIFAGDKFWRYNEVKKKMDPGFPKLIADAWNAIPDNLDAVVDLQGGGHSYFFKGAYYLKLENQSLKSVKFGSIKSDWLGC
Protocol: Gelatinase inhibition assay. Inhibition of aminophenylmercuric acetate (APMA)-activated MMP-2 and trypsin-activated MMP-9 was performed using biotinylated gelatin as a substrate (15).

T1 sequence (P14780 20-707 limits assumed): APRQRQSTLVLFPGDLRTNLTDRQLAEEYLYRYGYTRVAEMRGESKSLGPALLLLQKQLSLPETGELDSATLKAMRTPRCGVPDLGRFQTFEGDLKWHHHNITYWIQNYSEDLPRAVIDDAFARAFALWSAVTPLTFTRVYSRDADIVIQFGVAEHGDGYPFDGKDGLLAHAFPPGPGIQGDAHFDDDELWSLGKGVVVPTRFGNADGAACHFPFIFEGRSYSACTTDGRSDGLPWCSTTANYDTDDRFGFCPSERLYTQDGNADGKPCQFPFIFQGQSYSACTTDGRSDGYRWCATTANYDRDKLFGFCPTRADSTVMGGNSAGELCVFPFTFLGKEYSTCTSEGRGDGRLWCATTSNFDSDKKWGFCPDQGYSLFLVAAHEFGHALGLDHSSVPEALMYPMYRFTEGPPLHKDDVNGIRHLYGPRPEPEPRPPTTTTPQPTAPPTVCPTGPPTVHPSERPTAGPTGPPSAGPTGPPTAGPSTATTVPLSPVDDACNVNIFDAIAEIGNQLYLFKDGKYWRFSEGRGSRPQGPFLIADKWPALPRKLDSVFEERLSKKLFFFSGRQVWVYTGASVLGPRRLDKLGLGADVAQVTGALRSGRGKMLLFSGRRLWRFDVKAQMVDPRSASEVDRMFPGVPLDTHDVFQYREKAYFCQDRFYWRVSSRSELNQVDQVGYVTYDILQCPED

CRVYGPYLLC
Inhibition of activation of purified pro-MMP-9 by MMP-3 (pro-MMP-9 [1]): did not inhibit
Inhibition of gelatin binding to immobilized CBD (CBD): not
Inhibition of THP-1 migration (THP-1 monocytic cells): inhibitory effect
Effect on interaction of MMP-9 with the leukocyte αM integrin I domain (αM integrin I domain): do not affect
Survival of the mice ([2]; after two months): all five CRV-injected mice were alive
Inhibition of tumor growth ([2]; at 31 days, five daily i.v. injections, vs scrambled peptide or PBS): statistically significant inhibition of tumor growth
Kaplan-Meier survival, Log-Rank test p vs. PBS ([2]; mouse, in vivo): 0.002
Kaplan-Meier survival, Log-Rank test p vs. scrambled CRV ([2]; mouse, in vivo): 0.003
Tumor vasculature, CD31 immunostaining ([2]; mouse, in vivo): less developed tumor vasculature
Inhibition of pro-MMP-9 activation (pro-MMP-9 [3]): inhibited pro-MMP-9 activation strongly
Inhibition of HT1080 invasion into matrigel (HT1080 fibrosarcoma): 50%
Effect on pro-MMP-9 activation (pro-MMP-9 [4]): blocked
Inhibition of HT1080 cell adhesion to vitronectin or fibronectin (HT1080 cells): Neither
Inhibition of MMP-2 activity in gelatin degradation assay [5]: did not inhibit
